Experimental data from patent US11851676B2, “Human neural precursor cells with inducible STIM1 knockdown” (NATIONAL CENTRE FOR BIOLOGICAL SCIENCES, priority 2018, dated 2023).

Columns and labels:
SOCE in human NPCs = assay: Thapsigargin-induced store release and SOCE Ca2+ imaging in human NPCs; type: cell-based; conditions: thapsigargin 10 μM store depletion, re-addition of 2 mM Ca2+; pharmacological inhibitors vs DMSO
Method: (A, B) Ca^2+-responses during ER-store release and SOCE induced by Thapsigargin (TG, 10 μM) measured using the ratiometric Ca^2+-indicator indo-1-AM in wild-type (WT) hNPCs (A) or hNPCs treated with pharmacological inhibitors of SOCE, BTP-2 and 2-APB at the indicated concentrations or DMSO as a solvent control (B). Each trace represents the mean+SEM for 25-100 cells. Ionomycin (Iono, 10 μM) was added at the end of each imaging to determine the peak F405/485 ratio obtained after saturation of the Ca′-indicator with Ca^2+ (C) Box plots quantifying the peak F405/485 values for store-release and SOCE in the indicated treatment conditions.
(Top) A representative Western blot showing levels of STIM1 protein in hNPCs transduced with an NTC (non-targeting control) or an sh-RNA targeting STIM1 (STIM1 KD). Actin serves as the loading control. […] (E) Ca^2+-responses during store-release and SOCE in hNPCs transduced with NTC and STIM1 KD. (F) Box plots quantifying the peak F405/485 values for store-release and SOCE in the indicated genotypes.

SOCE in NPCs = conditions: embryonic and adult mouse NSCs/NPCs; cited from earlier work
SVZ cells [1] = conditions: pharmacological blockade of SOC, in vitro; cited from earlier work
SVZ cells [2] = conditions: injection in brain lateral ventricle; cited from earlier work

Row | Compound | effect on SOCE in human NPCs (SOCE in human NPCs) | effect on SOCE in mouse NPCs (SOCE in NPCs) | effect on proliferation of SVZ cells (SVZ cells [1]) | effect on SVZ cell proliferation in vivo (SVZ cells [2])
1 | NCCOB(c1ccccc1)c1ccccc1 [2-APB, 2-aminoethoxy-diphenyl borate] | significantly inhibited SOCE | blocked |  | 
2 | Cc1nnsc1C(=O)Nc1ccc(-n2nc(C(F)(F)F)cc2C(F)(F)F)cc1 [BTP-2] | significantly inhibited SOCE | blocked | decreases proliferation | 
3 | [La+3] [La^3+] |  | blocked |  | 
4 | COc1ccc(CCCOC(Cn2ccnc2)c2ccc(OC)cc2)cc1 (centres unmarked) [SKF-96365] |  |  | decreases proliferation | diminishes SVZ cell proliferation
